Read-outs that look alike come from different tables or passages of the source.
Tests used:
[1] = for Famotidine (% control): glass vials
From the text: Forced degradation conditions refer to conditions of elevated temperature, or elevated temperature and humidity, intended to accelerate the process of chemical degradation. Forced degradation conditions for a period of time are used to predict the effect of storage under more benign conditions (e.g., room temperature) for a longer period of time.
After grinding, API mixture was stored in glass vials under the conditions indicated.

[2] = test system: gastric pH; conditions: for Amount by which TID dosing exceeded BID dosing, Gastric pH (24 h), mean of group / Amount by which TID dosing exceeded BID dosing, Upright Gastric pH, mean of group / Mean reduction in time with gastric pH below 3.5, TID compared to BID / Mean reduction in time with gastric pH below 4.0, TID compared to BID: 26.6 mg TID vs 40 mg BID; for Median pH (Upright), by subject / Fraction time pH < 4, by subject / Time pH < 4, by subject: individual subjects; for Fraction time pH < 4, by subject / Time pH < 4, by subject: 24 h; for Patients with 24-hour median gastric pH below 2.5: 13 subjects
Method: Thirteen healthy subjects participated in the study.
There was a washout of at least one week between administration of the last dose of Treatment Period 1 and administration of the first dose of Treatment Period 2.
All doses of study medication were administered orally, on an open-label basis. Subjects were prohibited from taking any medications or interventions that decrease gastric acid secretion or neutralize gastric acid, and any medications that are known or suspected to cause dyspepsia or gastrointestinal ulcers, throughout the study period.
(The first day of dosing for each treatment period is designated Study Day 1, and the last day of dosing is designated Study Day […]). Subjects were followed for 14 days after administration of their last dose of study medication.
(§1) For each patient the median pH during a 24 hour period (or subperiod thereof) was calculated. To measure the effect of treatments for a group of individuals, the average or mean of the measured medians for several individuals was determined (i.e., average={[M1+M2 . . . Mx]/X} where “x” is the number of individuals in the group and each “M” is the median for an individual in the group).

[3] = Pharmacokinetic drug-drug interaction study of ibuprofen and famotidine in healthy male subjects; conditions: for Bioequivalence when administered in combination compared to separate administration: 800 mg ibuprofen and 40 mg famotidine; for Difference of log-transformed AUC(last), alone versus in combination / Difference of log-transformed Cmax, alone versus in combination: bioequivalence test
[4] = test system: intragastric pH
From the text: The estimated pharmacodynamic parameters are listed below: Using the pharmacokinetic parameters obtained above together with the pharmacodynamic parameters above, plasma concentrations as well as intragastric pH as a function of time were simulated for various dose regimens.

[5] = From the text: where V/F is the apparent volume of distribution, ka is the absorption rate constant, kel is the elimination rate constant and Tlag is the absorption lag time.
[6] = remark: listed apart in the source
Method: as §1
Samples were collected prior to initiation of dosing, and prior to administration of the second dose of study medication on Study Day 1 and Study Day 5 during both treatment periods.

[7] = clinical; conditions: male, human, plasma
[8] = 26.6 mg TID, 24 h of Study Day 1, all subjects n=13
[9] = 26.6 mg TID, Study Day 1, all subjects
[10] = 26.6 mg TID, Study Day 1, all subjects n=13
[11] = 26.6 mg TID, Study Day 1, normal weight subjects
[12] = 26.6 mg TID, Study Day 1, normal weight subjects n=9
[13] = 40 mg BID, 24 h of Study Day 1, all subjects n=13
[14] = 40 mg BID, Study Day 1, all subjects
[15] = 40 mg BID, Study Day 1, all subjects n=13
[16] = 40 mg BID, Study Day 1, normal weight subjects
[17] = 40 mg BID, Study Day 1, normal weight subjects n=9
[18] = fit to mean plasma data of 40 mg Pepcid single dose study

SMILES: NC(N)=Nc1nc(CSCCC(N)=NS(N)(=O)=O)cs1 [famotidine, 3-[2-(diaminomethyleneamino)thiazol-4-ylmethylthio]-N-sulfamoyl propionamidine]
- Famotidine (% control) ([1]; 1 wk 40° C.): 96.1 % control
- Famotidine (% control) ([1]; 1 wk 60° C.): 121.0 % control
- Famotidine Content (percent of target content) ([1]; 2 weeks at 60° C.): 98%
- Famotidine (% control) ([1]; 2 wks 60° C.): 100.1 % control
- Amount by which TID dosing exceeded BID dosing, Gastric pH (24 h), mean of group ([2]; all subjects): 0.3 pH Units
- Amount by which TID dosing exceeded BID dosing, Upright Gastric pH, mean of group ([2]; all subjects): 0.5 pH Units
- Mean reduction in time with gastric pH below 3.5, TID compared to BID ([2]; all subjects): 19.5 min
- Mean reduction in time with gastric pH below 4.0, TID compared to BID ([2]; all subjects): 23.1 min
- Amount by which TID dosing exceeded BID dosing, Gastric pH (24 h), mean of group ([2]; normal weight group): 0.5 pH Units
- Amount by which TID dosing exceeded BID dosing, Upright Gastric pH, mean of group ([2]; normal weight group): 0.8 pH Units
- Mean reduction in time with gastric pH below 3.5, TID compared to BID ([2]; normal weight group): 89.3 min
- Mean reduction in time with gastric pH below 4.0, TID compared to BID ([2]; normal weight group): 89.9 min
- Average time below pH 3.5 [2, 8]: 693.5 min
- Average time below pH 4.0 [2, 8]: 783.4 Minutes
- Average Absolute Deviation of 24 hour median gastric pH [2, 9]: 0.5
- Average Absolute Deviation of pH in upright position [2, 9]: 0.7
- Average Absolute Deviation of time below pH 3.5 [2, 9]: 124.7 min
- Average Absolute Deviation of time below pH 4.0 [2, 9]: 111.9 min
- Max-Min of pH values in the upright position [2, 9]: 2.4 pH units
- Max-Min of time below pH 3.5 [2, 9]: 436 min
- Max-Min of time below pH 4.0 [2, 9]: 459 min
- Standard Deviation of 24 hour median gastric pH [2, 9]: 0.7
- Max-Min of 24 hour median gastric pH [2, 10]: 1.9 pH units
- Mean of 24 hour median gastric pH [2, 10]: 3.6 pH units
- Mean of pH values taken in the upright position [2, 10]: 3.7
- Range of 24 hour median gastric pH [2, 10]: 2.5-4.4
- Range of pH values taken in the upright position [2, 10]: 2.3-4.7
- Range of time below pH 3.5 [2, 10]: 514-950 min
- Range of time below pH 4.0 [2, 10]: 589-1048 Minutes
- Average Absolute Deviation of 24 hour median gastric pH [2, 11]: 0.5
- Average Absolute Deviation of time below pH 3.5 [2, 11]: 116.7 min
- Average Absolute Deviation of time below pH 4.0 [2, 11]: 105.4 min
- Average Absolute Deviation of upright pH values [2, 11]: 0.9
- Average time below pH 3.5 [2, 11]: 662.7 min
- Average time below pH 4.0 [2, 11]: 764.2 Minutes
- Max-Min of 24 hour median gastric pH [2, 11]: 1.9 pH units
- Max-Min of time below pH 3.5 [2, 11]: 436 min
- Max-Min of time below pH 4.0 [2, 11]: 459 min
- Max-Min of upright pH values [2, 11]: 2.4 pH units
- Mean of upright pH values [2, 11]: 3.8
- Range of time below pH 3.5 [2, 11]: 514-950 min
- Range of time below pH 4.0 [2, 11]: 589-1048 Minutes
- Range of upright pH values [2, 11]: 2.3-4.7
- Standard Deviation of 24 hour median gastric pH [2, 11]: 0.7
- Mean of 24 hour median gastric pH [2, 12]: 3.6
- Range of 24 hour median gastric pH [2, 12]: 2.5-4.4
- Average time below pH 3.5 [2, 13]: 713.0 min
- Average time below pH 4.0 [2, 13]: 806.5 Minutes
- Average Absolute Deviation of 24 hour median gastric pH [2, 14]: 0.9
- Average Absolute Deviation of pH in upright position [2, 14]: 1.0
- Average Absolute Deviation of time below pH 3.5 [2, 14]: 169.1 min
- Average Absolute Deviation of time below pH 4.0 [2, 14]: 158.8 min
- Max-Min of pH values in the upright position [2, 14]: 3.3 pH units
- Max-Min of time below pH 3.5 [2, 14]: 706 min
- Max-Min of time below pH 4.0 [2, 14]: 710 min
- Standard Deviation of 24 hour median gastric pH [2, 14]: 1.1
- Max-Min of 24 hour median gastric pH [2, 15]: 3.3 pH units
- Mean of 24 hour median gastric pH [2, 15]: 3.3 pH units
- Mean of pH values taken in the upright position [2, 15]: 3.2
- Range of 24 hour median gastric pH [2, 15]: 1.8-5.1
- Range of pH values taken in the upright position [2, 15]: 1.8-5.1
- Range of time below pH 3.5 [2, 15]: 459-1165 min
- Range of time below pH 4.0 [2, 15]: 514-1224 Minutes
- Average Absolute Deviation of 24 hour median gastric pH [2, 16]: 0.9
- Average Absolute Deviation of time below pH 3.5 [2, 16]: 175.1 min
- Average Absolute Deviation of time below pH 4.0 [2, 16]: 155.7 min
- Average Absolute Deviation of upright pH values [2, 16]: 1.0
- Average time below pH 3.5 [2, 16]: 752.0 min
- Average time below pH 4.0 [2, 16]: 854.1 Minutes
- Max-Min of 24 hour median gastric pH [2, 16]: 2.2 pH units
- Max-Min of time below pH 3.5 [2, 16]: 679 min
- Max-Min of time below pH 4.0 [2, 16]: 510 min
- Max-Min of upright pH values [2, 16]: 2.8 pH units
- Mean of upright pH values [2, 16]: 3.0
- Range of time below pH 3.5 [2, 16]: 486-1165 min
- Range of time below pH 4.0 [2, 16]: 714-1224 Minutes
- Range of upright pH values [2, 16]: 1.8-4.6
- Standard Deviation of 24 hour median gastric pH [2, 16]: 1.1
- Mean of 24 hour median gastric pH [2, 17]: 3.1
- Range of 24 hour median gastric pH [2, 17]: 1.8-4.0
- Median pH (Upright), by subject ([2]; BID 40 mg): 1.8 pH Units
- Fraction time pH < 4, by subject ([2]; BID 40 mg): (69.8%)
- Time pH < 4, by subject ([2]; BID 40 mg): 1005 min
- Patients with 24-hour median gastric pH below 2.5 ([2]; BID period (40 mg)): three
- Difference in Median pH (Upright), TID period vs BID period ([2]; Subject 106): 2.2 pH Units
- Difference in Median pH, TID period vs BID period ([2]; Subject 106): 2.1 pH Units
- Difference in Time pH < 4, BID period vs TID period ([2]; Subject 106): 268 min
- Median pH (Upright), by subject ([2]; TID 26.6 mg): 4.0 pH Units
- Fraction time pH < 4, by subject ([2]; TID 26.6 mg): (51.2%)
- Time pH < 4, by subject ([2]; TID 26.6 mg): 737 min
- Patients with 24-hour median gastric pH below 2.5 ([2]; TID period (26.6 mg)): no patients
- Bioequivalence when administered in combination compared to separate administration [3]: bioequivalent
- Kel (mean ± SD) ([3]; administered alone, single oral dose, 800 mg ibuprofen or 40 mg famotidine): 0.19 ± 0.01
- Difference of log-transformed AUC(last), alone versus in combination [3]: −0.034
- Difference of log-transformed Cmax, alone versus in combination [3]: −0.08
- Emax (maximum intragastric pH) ([4]; sigmoid Emax fit of digitized plasma concentration vs intragastric pH, one patient (Echizen and Ishizaki)): 7.80
- E0 (intragastric pH at time zero) ([4]; sigmoid Emax fit, one patient): 1.88
- γ (shape factor) ([4]; sigmoid Emax fit, one patient): 4.80
- EC50 (Pepcid concentration at one-half of Emax) ([4]; sigmoid Emax fit, plasma concentration vs intragastric pH, one patient): 0.0326 µg/mL
- V/F (apparent volume of distribution) ([5]; fit to mean plasma data of 40 mg Pepcid single dose bioequivalence study (n=30)): 241.8 L
- Tlag (absorption lag time) [5, 18]: 0.3677 h
- ka (absorption rate constant) [5, 18]: 0.8133 h⁻¹
- kel (elimination rate constant) [5, 18]: 0.2643 h⁻¹
- Plasma accumulation with TID dosing ([6]; 26.6 mg TID vs 40 mg BID, day 5 trough): does not lead to plasma accumulation
- Trough plasma concentration of famotidine (mean) ([6]; 26.6 mg TID, Day 1, prior to second dose): 9.7 ng/mL
- Trough plasma concentration of famotidine (mean) ([6]; 26.6 mg TID, Day 5, prior to second dose): 15.7 ng/mL
- Trough plasma concentration of famotidine (mean) ([6]; 40 mg BID, Day 1, prior to second dose): 10.5 ng/mL
- Trough plasma concentration of famotidine (mean) ([6]; 40 mg BID, Day 5, prior to second dose): 15.7 ng/mL
- Tmax ([7]; oral): 2.17 ± 0.93 h
- half-life ([7]; oral): 3.49 ± 0.35 h
- Tmax ([7]; po): 1.67 ± 0.52 h
- half-life ([7]; po): 3.66 ± 0.19 h

SMILES: CC(C)Cc1ccc(C(C)C(=O)O)cc1 (stereo not drawn) [ibuprofen, 2-(p-isobutylphenyl) propionic acid]
- Bioequivalence when administered in combination compared to separate administration [3]: bioequivalent
- Difference of log-transformed AUC(last), alone versus in combination [3]: 0.02
- Difference of log-transformed Cmax, alone versus in combination [3]: 0.02
- Tmax ([7]; oral): 2.25 ± 1.89 h
- Tmax ([7]; po): 1.58 ± 0.49 h
